Measurements as given in paper PMC11413854, “Reversible Control of Native GluN2B-Containing NMDA Receptors with Visible Light” (ACS Chemical Neuroscience, 2024).
Where “and” joins values, the source holds several entries; their conditions need not be identical. Equal values may be shown once. Read-outs that look alike come from different tables or passages of the source.

Molecular target: T1, GluN1/GluN2B NMDA receptors (UniProt P35439+Q01097)
T1 construct: expressed in transfected cells; host or cells: Xenopus laevis oocytes (nuclear cDNA injection)
T1 sequence (Q01097 27-1482, other chains not shown): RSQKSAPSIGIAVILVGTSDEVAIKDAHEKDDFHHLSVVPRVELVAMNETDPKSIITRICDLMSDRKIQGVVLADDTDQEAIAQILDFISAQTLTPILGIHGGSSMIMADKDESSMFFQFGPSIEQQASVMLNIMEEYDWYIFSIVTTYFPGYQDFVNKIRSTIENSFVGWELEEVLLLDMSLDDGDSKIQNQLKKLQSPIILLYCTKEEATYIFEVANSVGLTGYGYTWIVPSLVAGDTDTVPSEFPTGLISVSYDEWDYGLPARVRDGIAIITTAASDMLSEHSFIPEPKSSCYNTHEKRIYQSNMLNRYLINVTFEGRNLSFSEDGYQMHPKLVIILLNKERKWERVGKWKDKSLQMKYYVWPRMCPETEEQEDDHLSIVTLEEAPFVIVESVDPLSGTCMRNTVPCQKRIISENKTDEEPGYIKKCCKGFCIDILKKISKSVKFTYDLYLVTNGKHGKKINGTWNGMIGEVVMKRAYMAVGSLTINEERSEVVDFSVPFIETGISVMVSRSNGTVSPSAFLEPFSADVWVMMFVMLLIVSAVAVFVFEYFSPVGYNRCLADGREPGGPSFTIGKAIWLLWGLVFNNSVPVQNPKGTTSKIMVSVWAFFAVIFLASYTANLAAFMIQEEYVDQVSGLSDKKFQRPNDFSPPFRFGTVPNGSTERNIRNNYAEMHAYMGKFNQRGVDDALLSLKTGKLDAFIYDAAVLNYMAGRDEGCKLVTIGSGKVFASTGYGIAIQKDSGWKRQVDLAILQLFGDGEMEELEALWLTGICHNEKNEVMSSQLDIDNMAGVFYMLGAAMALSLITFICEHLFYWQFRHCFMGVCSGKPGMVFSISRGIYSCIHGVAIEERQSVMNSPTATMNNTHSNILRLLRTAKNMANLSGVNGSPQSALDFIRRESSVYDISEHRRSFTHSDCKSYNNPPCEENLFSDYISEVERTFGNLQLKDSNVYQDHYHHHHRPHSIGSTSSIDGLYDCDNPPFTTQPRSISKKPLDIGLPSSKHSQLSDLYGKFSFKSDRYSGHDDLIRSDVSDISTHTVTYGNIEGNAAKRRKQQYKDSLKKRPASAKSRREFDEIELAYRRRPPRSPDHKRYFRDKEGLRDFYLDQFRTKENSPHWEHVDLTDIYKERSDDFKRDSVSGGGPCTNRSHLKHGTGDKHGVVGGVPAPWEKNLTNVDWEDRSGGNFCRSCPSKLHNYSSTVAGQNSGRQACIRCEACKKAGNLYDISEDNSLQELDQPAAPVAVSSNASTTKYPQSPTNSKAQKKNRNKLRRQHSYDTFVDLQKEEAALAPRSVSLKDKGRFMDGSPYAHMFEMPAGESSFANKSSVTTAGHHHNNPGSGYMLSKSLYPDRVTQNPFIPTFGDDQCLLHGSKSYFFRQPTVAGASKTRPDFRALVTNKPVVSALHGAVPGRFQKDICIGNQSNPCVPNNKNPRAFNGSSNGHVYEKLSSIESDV
Assay: TEVC electrophysiology on Xenopus oocytes expressing wt GluN1/GluN2B NMDARs
Type: cell-based, rat GluN1, mouse GluN2B
Details: for inhibition of GluN1/GluN2B wt: 1 µM trans-OptoNAM-3 (dark); for IC50: 100 µM glutamate + glycine, Xenopus oocytes; for remaining activity at 1 µM: [OptoNAM-3] 1 µM; for remaining activity at 3 µM: [OptoNAM-3] 3 µM; for remaining activity at 5 µM: [OptoNAM-3] 5 µM; for remaining activity at 0.025 µM: [OptoNAM-3] 0.025 µM; for remaining activity at 0.05 µM: [OptoNAM-3] 0.05 µM; for remaining activity at 0.22 µM: [OptoNAM-3] 0.22 µM; for remaining activity at 30 µM: [OptoNAM-3] 30 µM; for Relative current for theoretical DRC 9% trans: theoretical for 350 nm PSS
From the text: The activity of OptoNAM-3 was functionally monitored by electrophysiology on Xenopus oocytes (see Methods). To assess the light-dependent effect, we tested the activities of the dark PSS (mostly trans) and the UV PSS (mostly cis, see above) separately. For each concentration, we prepared a solution divided into two samples: one in which the compound was kept in the dark for the duration of the experiment (dark PSS state); and the other that was preilluminated with either 350 or 365 nm light (350 or 365 nm PSS) and then kept away from the light for the duration of the experiment in order to avoid photoisomerization of the compounds by ambient light (see Methods). […] We generated dose–response curves of OptoNAM-3 dark and UV PSS on wild-type (wt) GluN1/GluN2B NMDA receptors (Figure 3A) in the presence of saturating concentrations of agonists (100 μM glutamate and glycine).
We used cDNA coding for rat GluN1–1a (named GluN1 herein) (GenBank: U08261.1), rat GluN2A (GenBank: D13211.1), mouse GluN2B (GenBank: D10651.2), rat GluA1 flop (GenBank: M36418.2), and rat Myc-GluA2(Q)-flip (GenBank: AF164344.1) cloned into pcDNA3-based expression plasmids. GluK2 (GenBank: Z11548.1) corresponds to the fully RNA-edited version.[80] The GluN2B-ΔNTD construct is from ref[45] and GluN2B–N615K is from ref[81]. Single mutants GluN2B-Q110G and GluN1-L135H were from ref[19]. The GluA2 cDNA contains a Myc tag ([…]) fused between the signal peptide and the N-terminus sequences, and the GluA2 subunit is […] for its Q/R/N site (GluA2(Q)) to allow permeation of homomeric GluA2 receptors.[2] cDNAs coding for rat GluN2C (GenBank: M91563.1) and GluN2D subunits (GenBank: L31611.1) were in prK5 plasmids.
Oocytes from Xenopus laevis were used for heterologous expression of recombinant NMDA receptors studied using a two-electrode voltage clamp (TEVC). Female Xenopus laevis were housed and ovary bags harvested according to the European Union guidelines (husbandry authorizations #C75–05–31 and #D75–05–31; project authorizations #05137.02; and Apafis #28867–2020121814485893). Fragments of ovary bags were also purchased from the “Centre de Ressources Biologiques Xenopes” (now TEFOR, Paris Saclay, France) and from the European Xenopus Resource Center (EXRC, Portsmouth, UK). Xenopus laevis oocytes were harvested and prepared as previously described in ref[82].
Expression of recombinant NMDA receptors was obtained by oocyte nuclear coinjection of 37 nL of a mixture of cDNAs (at 30 ng/μL) coding for GluN1–1a and various GluN2 subunits (ratio 1:1). The protocol in ref[43] was followed for the expression of GluN1/GluN2A/GluN2B triheteromers. The oocytes were transferred in 96-well plates filled with Barth solution (in mM: 88 NaCl, 1 KCl, 0.33 Ca(NO3)2, 0.41 CaCl2, 0.82 MgSO4, 2.4 NaHCO3, and 7.5 HEPES, pH adjusted to 7.3 with NaOH), supplemented with gentamicin ([…]) and 50 μM APV, a selective NMDA receptor antagonist. Plates were then stored at 18 °C for 24 h for GluN1/GluN2A expression and for 48––72 h for the expression of GluN1/Glu2B, GluN1/GluN2A/GluN2B, and mutants.
TEVC recordings were performed 1–3 days following injection. TEVC recordings were performed using an Oocyte Clamp amplifier OC-725 (Warner Instruments) and computer-controlled via a 1440A Digidata (Molecular Devices). Currents were sampled at 100 Hz and low-pass-filtered at 20 Hz using an 8-pole Bessel filter (900 Series, Frequency Devices Inc.).

[1] = GluN1/GluN2B wt, OptoNAM-3 350 nm PSS, read-out: Relative current (IOpto/I0)
[2] = GluN1/GluN2B wt, OptoNAM-3 365 nm PSS, read-out: Relative current (IOpto/I0)
[3] = GluN1/GluN2B wt, OptoNAM-3 dark PSS (trans), read-out: Relative current (IOpto/I0)

- Relative current for theoretical 100% cis (0.025 µM, calculated from the 365 nm PSS curve): 0.953
- Relative current for theoretical 100% cis (0.050 µM, calculated from the 365 nm PSS curve): 0.945
- Relative current for theoretical 100% cis (0.125 µM, calculated from the 350 nm PSS curve): 0.949
- Relative current for theoretical 100% cis (0.125 µM, calculated from the 365 nm PSS curve): 0.988
- Relative current for theoretical 100% cis (0.220 µM, calculated from the 365 nm PSS curve): 1.000
- Relative current for theoretical 100% cis (0.300 µM, calculated from the 350 nm PSS curve): 1.005
- Relative current for theoretical 100% cis (0.300 µM, calculated from the 365 nm PSS curve): 0.993
- Relative current for theoretical 100% cis (0.470 µM, calculated from the 350 nm PSS curve): 1.025
- Relative current for theoretical 100% cis (0.500 µM, calculated from the 365 nm PSS curve): 0.891
- inhibition of GluN1/GluN2B wt: 69.305%
- inhibition of GluN1/GluN2B wt (listed as trans-OptoNAM-3): 69% ± 2%
- Relative current for theoretical 100% cis (1.000 µM, calculated from the 350 nm PSS curve): 1.085
- Relative current for theoretical 100% cis (1.000 µM, calculated from the 365 nm PSS curve): 0.988
- Relative current for theoretical 100% cis (2.000 µM, calculated from the 350 nm PSS curve): 1.000
- Relative current for theoretical 100% cis (2.000 µM, calculated from the 365 nm PSS curve): 0.933
- Relative current for theoretical 100% cis (3.000 µM, calculated from the 350 nm PSS curve): 1.043
- Relative current for theoretical 100% cis (3.000 µM, calculated from the 365 nm PSS curve): 0.959
- Relative current for theoretical 100% cis (5.000 µM, calculated from the 350 nm PSS curve): 0.994
- Relative current for theoretical 100% cis (5.000 µM, calculated from the 365 nm PSS curve): 0.960
- inhibition at 10 µM (10 µM OptoNAM-3 365 nm PSS, construct GluN1/GluN2B, read-out: Inhibition (%)): 68%
- Inhibition, individual values (10 µM OptoNAM-3 dark PSS (trans) as headed, GluN1/GluN2B, single cells, second block): 0.6438 and 0.6778 and 0.6833 and 0.7763
- inhibition at 10 µM (10 µM OptoNAM-3 dark PSS (trans) as headed, GluN1/GluN2B, single cells, second block, read-out: Inhibition, individual values): 63.8%
- Inhibition, individual values (10 µM OptoNAM-3 dark PSS (trans), GluN1/GluN2B, single cells, first block): 0.9137 and 0.9546 and 0.9747
- inhibition at 10 µM (10 µM OptoNAM-3 dark PSS (trans), GluN1/GluN2B, single cells, first block, read-out: Inhibition, individual values): 92.7%
- inhibition at 10 µM (10 µM OptoNAM-3 dark PSS (trans), construct GluN1/GluN2B, read-out: Inhibition (%)): 94%
- Relative current for theoretical 100% cis (30.000 µM, calculated from the 365 nm PSS curve): 0.961
- IC50 (350 nm PSS, read-out: IC50 on GluN1/GluN2B receptors, preilluminated with 350 nm): 4.4 µM and 4.38 µM
- IC50 (365 nm PSS, read-out: IC50 on GluN1/GluN2B receptors, preilluminated with 365 nm): 1.7 µM
- remaining activity at 0.125 µM (GluN1/GluN2B wt, OptoNAM-3 350 nm PSS, [OptoNAM-3] 0.125 µM, read-out: Relative current (IOpto/I0)): 90.7%
- remaining activity at 0.3 µM (GluN1/GluN2B wt, OptoNAM-3 350 nm PSS, [OptoNAM-3] 0.3 µM, read-out: Relative current (IOpto/I0)): 91.8%
- remaining activity at 0.47 µM (GluN1/GluN2B wt, OptoNAM-3 350 nm PSS, [OptoNAM-3] 0.47 µM, read-out: Relative current (IOpto/I0)): 90%
- remaining activity at 1 µM [1]: 86%
- remaining activity at 2 µM (GluN1/GluN2B wt, OptoNAM-3 350 nm PSS, [OptoNAM-3] 2 µM, read-out: Relative current (IOpto/I0)): 65.6%
- remaining activity at 3 µM [1]: 61.3%
- remaining activity at 5 µM [1]: 44.6%
- remaining activity at 0.025 µM [2]: 93.3%
- remaining activity at 0.05 µM [2]: 91%
- remaining activity at 0.125 µM (GluN1/GluN2B wt, OptoNAM-3 365 nm PSS, [OptoNAM-3] 0.125 µM, read-out: Relative current (IOpto/I0)): 91.2%
- remaining activity at 0.22 µM [2]: 88%
- remaining activity at 0.3 µM (GluN1/GluN2B wt, OptoNAM-3 365 nm PSS, [OptoNAM-3] 0.3 µM, read-out: Relative current (IOpto/I0)): 84.1%
- remaining activity at 0.5 µM (GluN1/GluN2B wt, OptoNAM-3 365 nm PSS, [OptoNAM-3] 0.5 µM, read-out: Relative current (IOpto/I0)): 66.6%
- remaining activity at 1 µM [2]: 64.4%
- remaining activity at 2 µM (GluN1/GluN2B wt, OptoNAM-3 365 nm PSS, [OptoNAM-3] 2 µM, read-out: Relative current (IOpto/I0)): 43.3%
- remaining activity at 3 µM [2]: 37.5%
- remaining activity at 5 µM [2]: 26.7%
- remaining activity at 30 µM [2]: 3.4%
- remaining activity at 0.025 µM [3]: 88.7%
- remaining activity at 0.05 µM [3]: 82.7%
- remaining activity at 0.125 µM (GluN1/GluN2B wt, OptoNAM-3 dark PSS (trans), [OptoNAM-3] 0.125 µM, read-out: Relative current (IOpto/I0)): 75.8%
- remaining activity at 0.22 µM [3]: 59.2%
- remaining activity at 0.3 µM (GluN1/GluN2B wt, OptoNAM-3 dark PSS (trans), [OptoNAM-3] 0.3 µM (Sup. Fig. 3A/B/E), read-out: Relative current (IOpto/I0)): 58.1%
- remaining activity at 1 µM [3]: 30.7%
- remaining activity at 2 µM (GluN1/GluN2B wt, OptoNAM-3 dark PSS (trans), [OptoNAM-3] 2 µM (Sup. Fig. 3A/B/E), read-out: Relative current (IOpto/I0)): 14.1%
- remaining activity at 3 µM [3]: 9.8%
- remaining activity at 5 µM [3]: 9.2%
- remaining activity at 30 µM [3]: 0.423%
- Relative current for theoretical DRC 9% trans (GluN1/GluN2B wt, [OptoNAM-3] 0.125 µM): 0.958
- Relative current for theoretical DRC 9% trans (GluN1/GluN2B wt, [OptoNAM-3] 0.3 µM): 0.913
- Relative current for theoretical DRC 9% trans (GluN1/GluN2B wt, [OptoNAM-3] 0.47 µM): 0.875
Structure (SMILES): c1ccc(/N=N/c2ccc(CCNc3ccncc3)cc2)cc1 [OptoNAM-3, (E)-N-(4-(Phenyldiazenyl)phenethyl)pyridin-4-amine]
